Values of other authors, collected in patent US20040143855A1, “Ion channels as targets for sleep-related drugs” (priority 2002, published 2004).

Columns and labels:
[1] = tested on: Drosophila; settings: flies given the drug
[2] = biological target: T1, TREK-1 (Homo sapiens, UniProt O95069); settings: volatile general anesthetics
T1 sequence (O95069 1-426): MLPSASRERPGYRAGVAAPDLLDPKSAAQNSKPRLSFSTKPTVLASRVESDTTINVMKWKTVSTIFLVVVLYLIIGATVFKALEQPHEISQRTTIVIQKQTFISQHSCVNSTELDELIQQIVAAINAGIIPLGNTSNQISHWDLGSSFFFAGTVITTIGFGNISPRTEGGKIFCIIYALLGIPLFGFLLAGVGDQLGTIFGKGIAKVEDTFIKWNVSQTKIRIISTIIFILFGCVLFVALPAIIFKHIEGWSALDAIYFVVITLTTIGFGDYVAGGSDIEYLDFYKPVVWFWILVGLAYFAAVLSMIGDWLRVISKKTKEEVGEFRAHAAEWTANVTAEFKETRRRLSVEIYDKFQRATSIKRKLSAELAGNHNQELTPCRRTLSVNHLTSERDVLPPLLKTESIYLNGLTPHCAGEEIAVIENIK

Structure (SMILES)	sleep (amount) [1]	effect on TREK-1 channel [2]	sleep latency [1]
Cn1c(=O)c2c(ncn2C)n(C)c1=O [caffeine]	dose-dependent decrease in sleep	–	–
ClC(Cl)Cl [chloroform]	–	activated	–
CCOCC [diethylether]	–	activated	–
FC(F)(F)C(Cl)Br (stereo not shown) [halothane]	–	activated	–
OCCOCCN1CCN(C(c2ccccc2)c2ccc(Cl)cc2)CC1 (stereo not shown) [hydroxyzine]	increased sleep	–	reduced its latency
FC(F)OC(Cl)C(F)(F)F (stereo not shown) [isoflurane]	–	activated	–
